Assay results reported in patent publication US9113629B2, “4-amino-6-(4-substituted-phenyl)-picolinates and 6-amino-2-(4-substituted-phenyl)-pyrimidine-4-carboxylates and their use as herbicides” (DOW AGROSCIENCES LLC, priority 2013, dated 2015).
Like-named read-outs stand apart in the source and are kept apart here.

Tests used:
[1] = system: Key Broadleaf Weed and Crop Species; experiment: Post-emergent Test II herbicidal activity (Table 5); assay type: in vivo; details: post-emergence, 336 h, post-emergent, 14 days after application; for pest or weed control at 66 g/ha: 66 g ai/ha; for pest or weed control at 132 g/ha: 132 g ai/ha
In short: (§1)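 Visual injury ratings (0 = no injury, 100 = complete kill) were taken 14 d after treatment, relative to untreated plants. Seedlings at the first–second true leaf stage received overhead spray at 187 L/ha; the highest rate was serially diluted to ½×, ¼×, ⅛× and 1/16×.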

[2] = system: Key Grass and Sedge Weeds as well as Grass Crops; experiment: Post-emergent Test II herbicidal activity (Table 6); assay type: in vivo; details: post-emergence, 336 h; for pest or weed control at 66 g/ha: application rate 66 g ai/ha; for pest or weed control at 132 g/ha: application rate 132 g ai/ha
In short: as §1

[3] = ABUTH: velvetleaf (Abutilon theophrasti), read-out: Visual Growth Reduction (%) 14 Days After Application ABUTH
[4] = AMARE: redroot pigweed (Amaranthus retroflexus), read-out: Visual Growth Reduction (%) 14 Days After Application AMARE
[5] = BRSNN: oilseed-rape, canola (Brassica napus), read-out: Visual Growth Reduction (%) 14 Days After Application BRSNN
[6] = CHEAL: lambsquarters (Chenopodium album), read-out: Visual Growth Reduction (%) 14 Days After Application CHEAL
[7] = EPHHL: wild poinsettia (Euphorbia heterophylla), read-out: Visual Growth Reduction (%) 14 Days After Application EPHHL
[8] = HELAN: sunflower (Helianthus annuus), read-out: Visual Growth Reduction (%) 14 Days After Application HELAN
[9] = VIOTR: wild pansy (Viola tricolor), read-out: Visual Growth Reduction (%) 14 Days After Application VIOTR
[10] = Triticum aestivum, TRZSS (wheat), read-out: Visual Growth Reduction (%) 14 Days After Application, TRZSS
[11] = CYPES: yellow nutsedge (Cyperus esculentus), read-out: Visual Growth Reduction (%) 14 Days After Application, CYPES
[12] = DIGSA: crabgrass (Digitaria sanguinalis), read-out: Visual Growth Reduction (%) 14 Days After Application, DIGSA
[13] = ECHCG: barnyardgrass (Echinochloa crus-galli), read-out: Visual Growth Reduction (%) 14 Days After Application, ECHCG
[14] = ORYSA: rice (Oryza sativa), read-out: Visual Growth Reduction (%) 14 Days After Application, ORYSA
[15] = SETFA: giant foxtail (Setaria faberi), read-out: Visual Growth Reduction (%) 14 Days After Application, SETFA
[16] = SORVU: grain sorghum (Sorghum vulgare), read-out: Visual Growth Reduction (%) 14 Days After Application, SORVU
[17] = ZEAMX: maize, corn (Zea mays), read-out: Visual Growth Reduction (%) 14 Days After Application, ZEAMX

In the case of C#Cc1ccc(-c2nc(C(=O)OC)c(Cl)c(N)c2C)cc1 [Compound 40, methyl 4-amino-3-chloro-6-(4-ethynylphenyl)-5-methylpicolinate], the pest or weed control at 66 g/ha [1, 3] is reported as 75 to 84%, the pest or weed control at 132 g/ha [1, 3] is reported as 95 to 100% and the pest or weed control at 66 g/ha [1, 4] is reported as 0 to 29%. It also gave a pest or weed control at 132 g/ha [1, 4] of 45 to 59%, a pest or weed control at 66 g/ha [1, 5] of 45 to 59% and a pest or weed control at 132 g/ha [1, 5] of 45 to 59%. The pest or weed control at 66 g/ha [1, 6] was 45 to 59%, the pest or weed control at 132 g/ha [1, 6] was 60 to 74% and the pest or weed control at 66 g/ha [1, 7] was 0 to 29%. The pest or weed control at 132 g/ha [1, 7] was 0 to 29%, the pest or weed control at 66 g/ha [1, 8] was 85 to 94% and the pest or weed control at 132 g/ha [1, 8] was 95 to 100%. The pest or weed control at 66 g/ha [1, 9] was 0 to 29%, the pest or weed control at 132 g/ha [1, 9] was 0 to 29% and the pest or weed control at 66 g/ha [2, 10] was 0 to 29%. For the same compound, the pest or weed control at 132 g/ha [2, 10] was 0 to 29%, the pest or weed control at 66 g/ha [2, 11] was 0 to 29% and the pest or weed control at 132 g/ha [2, 11] was 0 to 29%. For the same compound, the pest or weed control at 66 g/ha [2, 12] was 0 to 29%, the pest or weed control at 132 g/ha [2, 12] was 0 to 29% and the pest or weed control at 66 g/ha [2, 13] was 0 to 29%. The pest or weed control at 132 g/ha [2, 13] was 0 to 29%, the pest or weed control at 66 g/ha [2, 14] was 0 to 29% and the pest or weed control at 132 g/ha [2, 14] was 0 to 29%. It also gave a pest or weed control at 66 g/ha [2, 15] of 0 to 29%, a pest or weed control at 132 g/ha [2, 15] of 0 to 29% and a pest or weed control at 66 g/ha [2, 16] of 0 to 29%. For the same compound, the pest or weed control at 132 g/ha [2, 16] was 0 to 29%, the pest or weed control at 66 g/ha [2, 17] was 0 to 29% and the pest or weed control at 132 g/ha [2, 17] was 0 to 29%.
